Test results taken from patent US4462993A, “Aminoacridine-α, β-(D)- or -(L)-N-glycoside derivatives, the salts thereof and a process for the preparation of such compounds” (Biogal Gyogyszergyar, priority 1981, dated 1984).
Where two headings read alike, the source gives them in different places.

Experiments:
[1] = decomposition product; cited from earlier work
[2] = toxicity measurements at CFLP-mice (LD50); settings: mouse, in vivo, female CFLP-mice
Text: By the incorporation of one or more sugar residue(s) the toxicity of the compounds is influenced positively, too. The results of toxicity measurements carried out at CFLP-mice (female) (Litchfield, J. T. and Wilcoxon F.: J. Pharmacol. 96, 99 (1949) are summarized in the following Table.

[3] = system: ascites tumor according to Ehrlich; experiment: test with the Ehrlich-carcinoma in mice; type: in vivo
Experimental: A test with the Ehrlich-carcinoma was carried out with 50 mice each as test group and as K control group. The animals were intraperitoneally infected with 5×10^6 cells each of the ascites tumor according to Ehrlich. On the first, second and third day after the infection half of the mice were treated with 12.5 mg/kg.d of 10-methyl-proflavine-diglucoside.

Aspergillus funigatus = experiment: efficacy against Aspergillus funigatus; type: cell-based
Experimental: (§1) The incorporation of the sugar group into the aminoacridine molecule modifies its properties in an unforeseen way. Thus e.g. 3,6-diamino-acridine and 3,6-diamino-10-methyl-acridine are efficacious in concentrations of 50 μg/ml against microorganisme (Bacillus subtilis, Salmonalla typhy-murium, Proteus vulgaris, Escherichia coli, Shigella flexneri etc.) while the diglucoside of the 3,6-diamino-acridine is inefficacious also in concentrations of 500 μg/ml against the named microorganisms. Inversely the aminoacridines are inefficacious against fungi while the diglucoside of 3,6-diamino-10-methyl-acridine is efficacious e.g. against Aspergillus funigatus and Aspergillus niger.

Aspergillus niger = experiment: efficacy against Aspergillus niger; type: cell-based
Experimental: as §1

Ehrlich tumor = experiment: inhibition and prevention of the Ehrlich tumor in mice and rats; type: in vivo
wounds = settings: disinfecting of wounds, World War II; cited from earlier work
Ehrlich ascites tumor = settings: Schumelfelder et al., Z. Krebsforsch, 63, 129 (1959); cited from earlier work
[4] = literature; cited from earlier work
[5] = known; cited from earlier work

SMILES | LD50 ([2]; ip, read-out: LD50 i.p.) | LD50 ([2]; iv, read-out: LD50 i.v.) | healing of the wound (wounds) | tissue necrosis (wounds) | mutation of certain objects [4] | antimicrobial effect [5] | further results
O=c1c2ccccc2[nH]c2cccc([N+](=O)[O-])c12 [1-nitroacridone] | – | – | – | – | – | – | biological activity [1]: biologically inactive
C[n+]1c2cc(N[C@@H]3O[C@H](CO)[C@@H](O)[C@H](O)[C@H]3O)ccc2cc2ccc(N[C@@H]3O[C@H](CO)[C@@H](O)[C@H](O)[C@H]3O)cc21.[Cl-] [3,6-Di-(β-D-glucopyranosyl-amino)-10-N-methyl-acridinium chloride] | 210 mg/kg | 37 mg/kg | – | – | – | – | Change of body weight in g on the 7th day ([3]; 12.5 mg/kg.d on first, second and third day after infection, 7th day): +1.2 g; Change of body weight in g on the 12th day ([3]; 12.5 mg/kg.d on first, second and third day after infection, 12th day): +2.0 g; Change of body weight in g on the 21st day ([3]; 12.5 mg/kg.d on first, second and third day after infection, 21st day): +2.6 g; treated animals still living on the 40th day ([3]; 12.5 mg/kg.d, 40th day): all treated animals were still living; Average surviving time ([3]; 12.5 mg/kg.d, observation stopped on the 40th day): 40.0 days; efficacy against fungi (Aspergillus funigatus): efficacious; efficacy against fungi (Aspergillus niger): efficacious; state of the animal concerning its condition (Ehrlich tumor; 6.25 mg/kg-12.5 mg/kg i.p.): improves the state of the animal concerning its condition; development of the Ehrlich tumor (Ehrlich tumor; test animals: mice and rats): inhibits the development of the Ehrlich tumor; formation of the Ehrlich tumor (Ehrlich tumor; test animals: mice and rats): prevents its formation
C[n+]1c2cc(N)ccc2cc2ccc(N)cc21 [3,6-diamino-10-methyl-acridine] | 60 mg/kg | 14 mg/kg | slowed down the healing of the wound | caused tissue necrosis | can cause mutation of certain objects | exert a certain antimicrobial effect | growth of the Ehrlich ascites tumor (Ehrlich ascites tumor): inhibited
Nc1ccc2cc3ccc(N)cc3nc2c1 [3,6-diamino-acridine, 3,6-diaminoacridine] | 84 mg/kg | 65 mg/kg | slowed down the healing of the wound | caused tissue necrosis | can cause mutation of certain objects | exert a certain antimicrobial effect | –
OC[C@H]1O[C@@H](Nc2ccc3cc4ccc(N[C@@H]5O[C@H](CO)[C@@H](O)[C@H](O)[C@H]5O)cc4nc3c2)[C@H](O)[C@@H](O)[C@@H]1O [3,6-diamino-acridine-diglucoside, 3,6-Di-(β-Di-glucopyranosyl-amino)-acridine] | 280 mg/kg | 87 mg/kg | – | – | – | – | –
